According to patent US20140377324A1, “Pharmaceutical Composition Comprising miRNA-100 And Its Use In The Modulation of Blood Vessel Growth and Endothelial Inflammation” (Universitatsklinikum Freiburg, priority 2009, published 2014):
Entries after “also recorded” stand apart in the source; their conditions may differ. {Chol} = cholesterol

What was measured:
miR-100 [1] = test: miR-100 expression in endothelial cells after cytokine, inhibitor or statin exposure (stem loop Taqman PCR); assay type: cell-based, human; settings: for miR-100 expression: endothelial cells exposed to cytokine, TNF-α 10 ng/ml for different time points (FIG. 16A)
Source text: (§1) MicoRNA expression was validated by quantitative stem-loop PCR technology (TaqMan MicroRNA Assays, Applied Biosystems, Foster City, Calif.). The use of target-specific reverse transcription primers and TaqMan hybridization probes allows the specific detection of mature microRNAs. MicroRNA expression was normalized to the expression of the small RNAs rnu19 and rnu48.
To search for possible inducers of miR-100 downregulation in endothelial cells, several pro-angiogenic or pro-arteriogenic cytokines were screened for effects on miR-100 expression.
FIG. 16 [A]: Human endothelial cells were stimulated 10 ng/ml TNF-α for different time points. RNA was isolated and quantified using Taqman based Stem loop PCR.
FIG. 16 [B]: The NF-kappaB inhibitor PS1145 (10 μM) was added to TNF-α stimulated (10 ng/ml) human endothelial cells and the miR-100 expression level, compared to controls without PS1145, were measured using Stem loop Taqman PCR.
Human endothelial cells were stimulated with 1 μM Simvastatin for 48 h.

[2] = tissue distribution of fluorescence-labeled antagomir; assay type: in vivo; settings: mice
miR-100 [3] = test: miR-100 expression in mouse tissues after antagomir treatment; assay type: in vivo; settings: mice, three doses of antagomir; FIG. 8
Experimental: (§2) The murine hindlimb ischemia model conforms to the Guide for the Care and Use of Laboratory Animals published by the U.S. National Institutes of Health and was performed after securing appropriate institutional approval. Unilateral femoral artery occlusion was performed in C57/BI6J mice (Charles River Lab., Sulzfeld, Germany) by double ligation of the superficial femoral artery proximal to the deep femoral artery and the distal femoral artery just above the knee joint. A sham operation without arterial occlusion was performed on the contralateral leg. For molecular biology, histology and in situ hybridization, tissue was carefully dissected and snap-frozen in liquid nitrogen until further analysis. For dissection of isolated collateral arteries, the hindlimb vasculature was […] with liquid latex, to allow the identification and isolation of individual arterial vessels.
(§3) To assess whether inhibition of miR-100 can be be used to stimulate revascularization in vivo, mice were treated with a specific antagomir against miR-100 after induction of unilateral hindlimb ischemia.

[4] = test system: murine hindlimb ischemia model; test: murine hindlimb ischemia model, perfusion restoration and capillary density; assay type: in vivo, C57/BI6J mice
Experimental: as §2, §3
In addition, two separate groups of mice were treated with daily injections of the mTOR-inhibitor rapamycin or solvent to investigate the timecourse of hindlimb perfusion restoration under conditions of endogenous miR-100 downregulation, but impaired signalling of its target gene mTOR.

endothelial cells [5] = test: planar matrigel assay, endothelial network formation; assay type: cell-based, human
endothelial cells [6] = test: flow cytometric quantification of Annexin V-staining (apoptosis); assay type: cell-based, human; settings: compared to irrelevant control sequence, FIG. 3
Source text: (§4) To assess whether the observed differences were secondary to effects on cellular viability, endothelial cell apoptosis and proliferation following miR-100 modulation was checked. […] DNA-synthesis rate was further analyzed by measuring BrdU-Incorporation, which correlates well with cellular proliferation.

HUVECs / human PBMCs = test: Leukocyte-HUVEC interaction under flow conditions (flow chamber); assay type: cell-based; settings: TNF-alpha 30 ng/ml for 24 h, flow 1 dyn/cm^2; FIG. 15
Experimental: HUVECs were grown to confluence, transfected with either anti-miR-100 or pre-Mir-100 oligonucelotides or scrambled controls and stimulated with TNF-alpha 30 ng/ml for 24 h. Human PBMCs (HPBMCs) were obtained from buffy coats of healthy donors by Ficoll-Hypaque density gradient centrifugation. The flow chamber was assembled and placed onto an inverted microscope stage, and freshly isolated HPBMCs (1×10^6/ml) were perfused across the endothelial monolayers. In all experiments, leukocyte interactions were determined over 105 min at 1 dyn/cm^2. Cells interacting on the surface of the endothelium were visualized and recorded using phase-contrast microscopy.
To test if this change in expression results in a functional difference in leukocyte rolling and adhesion to the endothelial surface, the attachment of isolated peripheral blood mononuclear cells (PBMC) to transfected endothelial cells was investigated under physiologic flow conditions in a flow chamber apparatus.
A physiological venous blood flow (1 dynes/cm^2) was induced by a flow chamber apparatus and the number of rolling or adherent peripheral blood mononuclear cells (PBMCs) was counted.

mTOR = mTOR expression in endothelial cells after miR-100 modulation; assay type: cell-based, human; settings: FIG. 5
Experimental: The binding site of miR-100 in the 3′-UTR of mTOR is shown in (FIG. 6.) In FIG. 6 the sequence designated hsa-miR-100 corresponds to SEQ ID NO:1 and the sequence having the designation mTOR 3′UTR corresponds to SEQ ID NO:7.
For transfection with pre-miR microRNA precursor molecules or anti-miRmiRNA inhibitors (all Ambion), cells were cultured to 70% confluence and transfected with 8nM pre-miR-100 or anti-miR-100 oligonucleotides using Lipofectamin RNAiMax (invitrogen) according to the manufacturers instructions. For transfection of HEK293 cells with mTOR plasmids, 2 μg DNA per 3×10E5 cells was transfected with Fugene 6 transfection reagent (Roche). For double transfection of plasmids with miRNA-precursors and inhibitors, pre- and anti-miRs were added to the plasmid/Fugene transfection mix in the same final concentrations as stated above. mTOR (Acc. NM004958) full length (SKU SC124066) and ORF-constructs (SKU RC220457) were obtained from the Origene collection (Origene, Rockville, Md.).

miR-100 [7] = test: miR-100 level by quantitative stem-loop RT-PCR after pre-miR/anti-miR transfection; assay type: cell-based, human; settings: 24 h following transfection; vs irrelevant-sequence controls; FIG. 2
Source text: To verify the expression of miR-100 in pure cell populations of the vascular wall, stem-loop RT-PCR was used for total RNA-isolates from cultured human endothelial cells (HUVECs) and human aortic vascular smooth muscle cells.
as §1
miR-100 was strongly expressed in both cell types. To investigate a potential role of miR-100 for angiogenesis, miR-100 was overexpressed and silenced in these cell types by transfecting specific miR-100 precursors (pre-miRs) or antisense-molecules (anti-miRs), respectively. […] Pre- and anti-miRs with an irrelevant nucleotide sequence served as negative controls. There was no significant difference in cellular viability following transfection with the different compounds.
For transfection with pre-miR microRNA precursor molecules or anti-miRmiRNA inhibitors (all Ambion), cells were cultured to 70% confluence and transfected with 8nM pre-miR-100 or anti-miR-100 oligonucleotides using Lipofectamin RNAiMax (invitrogen) according to the manufacturers instructions. […]

endothelial cells [8] = test: three-dimensional spheroid culture assay, endothelial sprouting; assay type: cell-based, human
endothelial cells [9] = test: BrdU-Incorporation (proliferation), endothelial cells; assay type: cell-based, human; settings: FIG. 3
Source text: as §4

With `O=C(Nc1cc(Cl)cc2c1[nH]c1cnccc12)c1cccnc1` [PS1145, reference compound] the “TNF-alpha effect on miR-100 expression” value (miR-100 [1]; PS1145 10 μM, TNF-α 10 ng/ml, human endothelial cells, FIG. 16B) was “abrogated the TNF-alpha effect; also recorded: attenuates the regulatory effect of TNF-alpha on miR-100 levels”.

In the case of “Antag-100: antagomir 5′-cacaaguucggaucuacggguu-3′ (SEQ ID No. 3), 2-O-methyl-RNA, phosphothioat modifications, cholesterol conjugation at 3′-end (antisense CACAAGUUCGGAUCUACGGGUU; all 2'-O-methyl, 3' {Chol}, backbone not given here; phosphorothioate modifications)”, the “tissue localisation of antagomir” value [2] is reported as “found in the endothelial layer of blood vessels; also recorded: most prominent accumulation was found in liver and lung sections”, the “miR-100 expression in a wide selection of tissues” value (miR-100 [3]) is reported as “strong and sustained suppression of miR-100 expression” and the flow ratio ([4]; day 7 following induction of ischemia, compared to two control-antagomirs) is reported as “higher flow ratio”. The capillary density ([4]; distal hindlimb / ischemic tissue) was “increase in capillary density” and the “perfusion restoration (blood flow restoration)” value ([4]; mice, after femoral artery occlusion, day 7, vs control-antagomirs or solvent, FIG. 9) was “significant stimulation of perfusion restoration”.

In the case of “FGF2: pro-angiogenic or pro-arteriogenic cytokine”, the miR-100 expression (miR-100 [1]) is reported as “no sustained and reproducible effect”.

With “TGF-beta1: pro-angiogenic or pro-arteriogenic cytokine” the miR-100 expression (miR-100 [1]) was “no sustained and reproducible effect”.

With TNF-alpha the miR-100 expression (miR-100 [1]) was “significant downregulation of miR-100”, the miR-100 expression (miR-100 [1]; listed as Tumor necrosis factor (TNF)-alpha) was “sustained downregulation of miR-100” and the “dose dependency of miR-100 decrease” value (miR-100 [1]; endothelial cells, TNF-alpha concentrations tested) was “trend for a more pronounced decrease of miR-100 expression with higher doses”.

For VEGF, the miR-100 expression (miR-100 [1]) was “no sustained and reproducible effect”.

For “anti-miR-100: antisense-molecule (anti-miR miRNA inhibitor, Ambion) silencing miR-100 in cultured cells; SEQ ID No:3 designated Anti miR (antisense CACAAGUUCGGAUCUACGGGUU; listed as RNA, chemistry not given here)”, the endothelial network formation (endothelial cells [5]) was “increased endothelial network formation”, the endothelial cell apoptosis (endothelial cells [6]) was “no significant effect” and the “leukocyte (PBMC) adhesion to transfected endothelial cells” value (HUVECs / human PBMCs) was “stimulatory effect”. The “leukocyte (PBMC) rolling on transfected endothelial cells” value (HUVECs / human PBMCs) was “stimulatory effect”, the “mTOR-expression on both mRNA as well as protein level” value (mTOR) was “significant upregulation” and the “detectable miR-100 (relative miR-100 expression)” value (miR-100 [7]) was “significantly decreased miR-100 levels”. The “endothelial sprouting (total sprout length)” value (endothelial cells [8]) was “longer total sprout length” and the “endothelial cell proliferation (DNA-synthesis rate)” value (endothelial cells [9]) was “consistent stimulatory effect”.
